Counter-ions that a name gives are not always drawn.

The target of this assay is MetAP-2 (Homo sapiens, UniProt P50579). Kind of assay: MetAP-2 activity measurement (coupled enzymatic reactions, substrate Met-Arg-Ser, photometric at 450 nm). It counts as biochemical. Particulars: read-out: IC50 enzyme (Inhibition of MetAP-2). Put shortly: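 Human MetAP-2 cleaves Met-Arg-Ser; the freed methionine is oxidized by L-amino acid oxidase, and the resulting H2O2 drives peroxidase oxidation of dianisidine, read continuously at 450 nm. Activity is taken as the slope in the visually linear region.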
Chain of MetAP-2 (P50579 whole entry, species assumed): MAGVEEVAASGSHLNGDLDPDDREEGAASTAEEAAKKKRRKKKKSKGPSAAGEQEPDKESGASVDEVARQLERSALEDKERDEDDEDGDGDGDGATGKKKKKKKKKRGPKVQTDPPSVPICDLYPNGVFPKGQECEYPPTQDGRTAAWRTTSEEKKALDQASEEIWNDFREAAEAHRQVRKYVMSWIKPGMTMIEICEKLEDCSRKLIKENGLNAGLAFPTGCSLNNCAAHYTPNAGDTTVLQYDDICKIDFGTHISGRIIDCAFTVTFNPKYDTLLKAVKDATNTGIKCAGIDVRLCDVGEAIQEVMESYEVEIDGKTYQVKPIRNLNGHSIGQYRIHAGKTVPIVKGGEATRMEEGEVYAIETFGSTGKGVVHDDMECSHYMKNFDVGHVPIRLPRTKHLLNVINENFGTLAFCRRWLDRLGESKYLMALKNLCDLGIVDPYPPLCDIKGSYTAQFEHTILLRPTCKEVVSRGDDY
Broadly, the IC50 is the point on the concentration scale where inhibition reaches its midpoint. As for `CCNC(=O)Nc1ccc2cccc(OC[C@H]3CCCN3c3ncnc4[nH]cnc34)c2c1` [A154, 1-Ethyl-3-{8-[(R)-1-(9H-purin-6-yi)pyrrolidin-2-yl-methoxy]naphthalen-2-yl}urea], the half-maximal inhibitory concentration (IC50) was in the range of 1000 to 10000 nM. The same measure for `Cc1ccc2cccc(OC[C@H]3CCCN3c3ncnc4[nH]cnc34)c2n1` [A49, 2-Methyl-8-[(R)-1-(9H-purin-6-yl)pyrrolidin-2-yl-methoxy]quinoline]: 1000 to 10000 nM; for `Nn1cnc2c(N3CCC[C@@H]3COc3cccc4ccccc34)ncnc21` [A25, 6-[(R)-2-(Naphthalen-1-yloxymethyl)pyrrolidin-1-yl]purin-9-ylamine]: 1000 to 10000 nM. In the case of `NCCOCCOCCNCc1ccc(OC[C@H]2CCCN2c2ncnc3[nH]cnc23)c2ccccc12` [A47, 2-{2-[2-({4-[(R)-1-(9H-Purin-6-yl)pyrrolidin-2-yl-methoxy]naphthalen-1-ylmethyl}-amino)ethoxy]ethoxy}ethylamine], the half-maximal inhibitory concentration (IC50) lay in the range of 1000 to 10000 nM. Next, `c1ccc2c(NCCCN3CCOCC3)ncc(OC[C@H]3CCCN3c3ncnc4[nH]cnc34)c2c1` [A178, (3-Morpholin-4-ylpropyl)-{4-[(R)-1-(9H-purin-6-yl)pyrrolidin-2-ylmethoxy]isoquinolin-1-yl}amine]: 1000 to 10000 nM; “2-[1-(1H-imidazol-4-yl)meth-(Z)-ylidene]-5-[(R)-1-(9H-purin-6-yl)pyrrolidin-2-ylmethoxy]-3,4-dihydro-2H-naphthalen-1-one [A15]”: 10 to 1000 nM. `OC[C@H]1CCCN1Cc1ccc(OC[C@H]2CCCN2c2ncnc3[nH]cnc23)c2ccccc12` [A114, ((R)-1-{4-[(R)-1-(9H-Purin-6-yl)pyrrolidin-2-yl-methoxy]naphthalen-1-ylmethyl}pyrrolidin-2-yl)-methanol]: the IC50 lay within 10 to 1000 nM.

`CN(C[C@H]1CCCN1c1ncnc2[nH]cnc12)c1cccc(F)c1` [A21]: the IC50 is over 10000 nM. Take `Cc1nc2c(N3CCC[C@@H]3COc3ccccc3Cl)ncnc2[nH]1` [A16, 6-[(R)-2-(2-Chlorophenoxymethyl)pyrrolidin-1-yl]-8-methyl-9H-purine]: the IC50 was over 10000 nM. The same measure for `c1ccc2c(OC[C@H]3CCCN3c3ncnc4[nH]cnc34)ccc(CNCCCN3CCOCC3)c2c1` [A95, (3-Morpholin-4-ylpropyl)-{4-[(R)-1-(9H-purin-6-yl)pyrrolidin-2-ylmethoxy]naphthalen-1-yl-methyl}amine]: 10 to 1000 nM; for `N[C@@H](Cc1c[nH]cn1)C(=O)N1CCc2cccc(OC[C@H]3CCCN3c3ncnc4[nH]cnc34)c2C1` [A195, (S)-2-Amino-3-(1H-imidazol-4-yl)-1-{8-[(R)-1-(9H-purin-6-yl)pyrrolidin-2-ylmethoxy]-3,4-dihydro-1H-isoquinolin-2-yl}propan-1-one]: 10 to 1000 nM; for `CC(C)(C)OC(=O)NCC(=O)N1CCN(c2ccc3cccc(OC[C@H]4CCCN4c4ncnc5[nH]cnc45)c3c2)CC1` [A167, tert-Butyl [2-oxo-2-(4-{8-[(R)-1-(9H-purin-6-yl)-pyrrolidin-2-ylmethoxy]naphthalen-2-yl}-piperazin-1-yl)ethyl]carbamate]: 1000 to 10000 nM.

In the case of `Oc1ccc2cccc(OC[C@H]3CCCN3c3ncnc4[nH]cnc34)c2c1` [A124, 8-[(R)-1-(9H-Purin-6-yl)pyrrolidin-2-yl-methoxy]naphthalen-2-ol], the half-maximal inhibitory concentration (IC50) is 1000 to 10000 nM.

Consider `CC(=O)N(Cc1ccc(OC[C@H]2CCCN2c2ncnc3[nH]cnc23)c2ccccc12)CC(O)CO` (stereo partly drawn) [A100, N-(2,3-Dihydroxypropyl)-N-{4-[(R)-1-(9H-purin-6-yl)pyrrolidin-2-ylmethoxy]naphthalen-1-yl-methyl}acetamide], for which the IC50 fell in the range of 10 to 1000 nM.

As for `O=C(O)CNC(=O)N1CCN(c2ccc3cccc(OC[C@H]4CCCN4c4ncnc5[nH]cnc45)c3c2)CC1` [A158, [(4-{8-[(R)-1-(9H-Purin-6-yl)pyrrolidin-2-yl-methoxy]naphthalen-2-yl}piperazine-1-carbonyl)amino]acetic acid], the concentration for half-maximal inhibition (IC50) was over 10000 nM. For the compound `COc1ccc2cccc(OC[C@H]3CCCN3c3ncnc4[nH]cnc34)c2c1` [A118, 6-[(R)-2-(7-Methoxynaphthalen-1-yloxymethyl)-pyrrolidin-1-yl]-9H-purine], the IC50 was in the range of 10 to 1000 nM. As for `c1ccc2c(OC[C@H]3CCCN3c3ncnc4[nH]cnc34)ccc(CN3CCOCC3)c2c1` [A3, 6-[(R)-2-(4-morpholin-4-ylmethylnaphthalen-1-yloxymethyl)pyrrolidin-1-yl]-9H-purine], the IC50 was 10 to 1000 nM.

On to `OC1CCN(C2CCc3cccc(OC[C@H]4CCCN4c4ncnc5[nH]cnc45)c3C2)C1` (stereo partly drawn) [A169, 1-{8-[(R)-1-(9H-Purin-6-yl)pyrrolidin-2-yl-methoxy]-1,2,3,4-tetrahydronaphthalen-2-yl}pyrrolidin-3-ol], for which the IC50 fell in the range of 1000 to 10000 nM. On to `CC1(C)Cc2cccc(OC[C@H]3CCCN3c3ncnc4[nH]cnc34)c2O1` [A72, 6-[(R)-2-(2,2-Dimethyl-2,3-dihydrobenzofuran-7-yloxymethyl)pyrro!idin-1-yl]-9H-purine], for which the IC50 was in the range of 1000 to 10000 nM. For the compound `c1ccc2c(c1)oc1cc(OC[C@H]3CCCN3c3ncnc4[nH]cnc34)ccc12` [A37], the IC50 lay in the range of 1000 to 10000 nM. In the case of `O=c1ccc(-c2cc(F)cc(F)c2)nn1CC1CCCN1c1ncnc2[nH]cnc12` (centres unmarked) [A32, 6-(3,5-Difluorophenyl)-2-[1-(9H-purin-6-yl)-pyrrolidin-2-ylmethyl]-2H-pyridazin-3-one], the IC50 is over 10000 nM. On to `CN1CCN(c2ccc3cccc(OC[C@H]4CCCN4c4ncnc5[nH]cnc45)c3c2)CC1` [A145, 6-{(R)-2-[7-(4-Methylpiperazin-1-yl)naphthalen-1-yloxymethyl]pyrrolidin-1-yl}-9H-purine], for which the IC50 fell in the range of 1000 to 10000 nM. Next, `CCOC(=O)c1c(OC[C@H]2CCCN2c2ncnc3[nH]cnc23)c2cc(F)ccc2n1C` [A184, Ethyl 5-fIuoro-1-methyl-3-[(R)-1-(9H-purin-6-yl)-pyrrolidin-2-ylmethoxy]-1H-indole-2-carboxylate]: over 10000 nM; `CCNC(=O)N1CCN(c2ccc3cccc(OC[C@H]4CCCN4c4ncnc5[nH]cnc45)c3c2)CC1` [A155, N-Ethyl-4-{8-[(R)-1-(9H-purin-6-yl)pyrrolidin-2-yl-methoxy]naphthalen-2-yl}piperazine-1-carboxamide]: 1000 to 10000 nM. Next, `Oc1ccc(OC[C@H]2CCCN2c2ncnc3[nH]c(F)nc23)c2ccccc12` [A147, 4-[(R)-1-(8-Fluoro-9H-purin-6-yl)pyrrolidin-2-yl-methoxy]naphthalen-1-ol]: 1000 to 10000 nM; `FC1(F)C[C@H](COc2cccc3ccccc23)N(c2ncnc3[nH]cnc23)C1` [A8, 6-[(R)-4,4-difluoro-2-(naphthalen-1-yloxymethyl)pyrrolidin-1-yl]-9H-purine]: 1000 to 10000 nM; `NCC(=O)N1CCN(c2ccc3cccc(OC[C@H]4CCCN4c4ncnc5[nH]cnc45)c3c2)CC1` [A168, 2-Amino-1-(4-{8-[(R)-1-(9H-purin-6-yl)pyrrolidin-2-ylmethoxy]naphthalen-2-yl}piperazin-1-yl)-ethanone]: 1000 to 10000 nM. With `CC(C)(C)OC(=O)N[C@H](CC(N)=O)C(=O)N1CCc2cccc(OC[C@H]3CCCN3c3ncnc4[nH]cnc34)c2C1` [A188, tert-Butyl ((R)-1-carbamoylmethyl-2-oxo-2-{8-[(R)-1-(9H-purin-6-yl)pyrrolidin-2-ylmethoxy]-3,4-dihydro-1H-isoquinolin-2-yl}ethyl)carbamate], the half-maximal inhibitory concentration (IC50) is 1000 to 10000 nM. On to `O=C(NC1CCCC1)c1cc(OC[C@H]2CCCN2c2ncnc3[nH]cnc23)c2ccccc2n1` [A69, N-Cyclopentyl-4-[(R)-1-(9H-purin-6-yl)-pyrrolidin-2-ylmethoxy]quinoline-2-carboxamide], for which the IC50 was in the range of 1000 to 10000 nM. As for `c1ccc2c(NC[C@H]3CCCN3c3ncnc4[nH]cnc34)cccc2c1` [A108, Naphthalen-1-yl[(R)-1-(9H-purin-6-yl)pyrrolidin-2-ylmethyl]amine], the IC50 was over 10000 nM. Regarding `CN(C)c1ccc2cc(S(=O)(=O)O)cc(OC[C@H]3CCCN3c3ncnc4[nH]cnc34)c2c1` [A107, 6-Dimethylamino-4-[(R)-1-(9H-purin-6-yl)-pyrrolidin-2-ylmethoxy]naphthalene-2-sulfonic acid], the IC50 was in the range of 1000 to 10000 nM.

For `CCCCCNC(=O)c1cc(OC[C@H]2CCCN2c2ncnc3[nH]cnc23)c2ccccc2n1` [A81, N-Pentyl-4-[(R)-1-(9H-purin-6-yl)pyrrolidin-2-yl-methoxy]quinoline-2-carboxamide], the IC50 is 10 to 1000 nM.

Turning to `c1cnc2c(OC[C@H]3CCCN3c3ncnc4[nH]cnc34)ccc(CN3CCCCC3)c2c1` [A42, 5-Piperidin-1-ylmethyl-8-[(R)-1-(9H-purin-6-yl)-pyrrolidin-2-ylmethoxy]quinoline formate], the IC50 lay within 1000 to 10000 nM. On to `c1cc2c(c(OC[C@H]3CCCN3c3ncnc4[nH]cnc34)c1)CNCC2` [A122, 8-[(R)-1-(9H-Purin-6-yl)pyrrolidin-2-ylmethoxy]-1,2,3,4-tetrahydroisoquinoline], for which the IC50 lay in the range of 10 to 1000 nM.

`Clc1ccc(-n2ccc(OC[C@H]3CCCN3c3ncnc4[nH]cnc34)n2)c(Cl)c1` [A153, 6-{(R)-2-[1-(2,4-Dichlorophenyl)-1H-pyrazol-3-yloxymethyl]pyrrolidin-1-yl}-9H-purine]: the IC50 was 10 to 1000 nM. For the compound `CNC(=O)/C=C1/CCc2c(OC[C@H]3CCCN3c3ncnc4[nH]cnc34)cccc2C1=O` [A67, N-Methyl-2-[1-oxo-5-[(R)-1-(9H-purin-6-yl)-pyrrolidin-2-ylmethoxy]-3,4-dihydro-1H-naphthalen-(2Z)-ylidene]acetamide], the IC50 was in the range of 10 to 1000 nM. Take `O=C1OCCC1CCOc1ccc2cccc(OC[C@H]3CCCN3c3ncnc4[nH]cnc34)c2c1` (stereo partly drawn) [A186, 3-(2-{8-[(R)-1-(9H-Purin-6-yl)pyrrolidin-2-yl-methoxy]naphthalen-2-yloxy}ethyl)dihydrofuran-2-one]: the IC50 was 1000 to 10000 nM.

As for `c1cc(OC[C@H]2CCCN2c2ncnc3[nH]cnc23)c2cc(N3CCNCC3)ccc2c1` [A115, 6-[(R)-2-(7-Piperazin-1-ylnaphthalen-1-yl-oxymethyl)pyrrolidin-1-yl]-9H-purine], the IC50 lay in the range of 10 to 1000 nM.

These data come from patent US8846694B2, “Pyrrolidone derivatives for use as MetAP-2 inhibitors” (Merck Patent GmbH, priority 2008, dated 2014).
